From patent US20250382631A1, “PROTAC-CID SYSTEMS FOR USE IN MULTIPLEX GENE REGULATION” (William Marsh Rice University, priority 2022, published 2025)
Where two headings read alike, the source gives them in different places.

What was measured:
[1] = system: pUAS-1-driven EYFP expression in HEK293T cells transfected with GAL4- and VPR-fused PROTAC target protein / E3 ubiquitin ligase; test: PROTAC-CID inducible EYFP gene activation, flow cytometry; type: cell-based, human; conditions: for Bottom (best-fit value) / Span (best-fit value) / Top (best-fit value): Table 4 nonlinear regression of EYFP activation; for Bottom (best-fit value) / Span (best-fit value) / Top (best-fit value) / Hillslope (best-fit value) / logEC50 (best-fit value) / EC50: FIG. 13A
Description: (§1) Fluorescence assay using flow cytometry analysis. Cells were treated with 0.05% Trpsin EDTA (Thermo Fisher Scientific no. 25300054) or TrypLE (Thermo Fisher Scientific no. 12605028) after transfection and centrifuged at 3000 g for 5 min. Supernatant was removed and the cell pellet was resuspended with 200 μL phosphate buffered saline (PBS) without calcium and magnesium (Thermo Fisher Scientific no. 10010023). Cells were transferred into 12×75 mm flow tubes (Global Scientific no. 110410). Cells were analyzed by MA900 flow cytometry (SONY). 405 nm laser (FL6 filter) was used for testing the BFP channel. 488 nm (FL1 filter) was used for testing the EYFP and GFP channel. Automated alignment using Automatic Setup Beads kit (SONY no. LE-B3001) is performed before running samples. In FIGS. 3A, 3B, and 17, experiments were performed under 2% FSC, 17% BSC, 24% FL1. In FIG. 18, experiments were performed under 2% FSC, 17% BSC, 27% FL1. All the other experiments were performed under 2% FSC, 17% BSC, 24% FL1 and 27% FL6. Flow cytometry data was processed and analyzed by FlowJo 10. Events were first gated with forward scatter-Area (FSC-A) and side scatter-Area (SSC-A) to select viable cells and remove the debris and dead cells. Cells were further gated with FSC-A and FSC-Height (FSC-H) for selecting single cells. The mean intensity of the reporter fluorescent protein (BFP and EYFP) in viable and single cell populations were calculated by FlowJo 10 as the mean of FL6-A and FL1-A. When calculating the fold change of relative fluorescence units (RFU), the relative fluorescence units of EYFP was calculated by dividing the mean of fluorescence intensity of EYFP with the mean of BFP fluorescence intensity for normalization as the following formula: […]
(§2) Next, the mean of the normalized relative fluorescence units of induced group were divided by the value of control group for calculating the fold change as the following formula: […]
(§3) Transfection and microscopy. HEK293T cells (American Type Culture Collection, no. CRL-3216) were cultured with high-glucose Dulbecco's modified Eagle's medium (DMEM) (Thermo Fisher Scientific no. 10569044) with 10% fetal bovine serum (FBS) (Thermo Fisher Scientific no. 10437028) and 1×penicillin-streptomycin (Thermo Fisher Scientific no. 15140122) at 37° C. with 5% CO2. Except for the data in FIGS. 3C, 3E, and 3H, cells were plated into 96 well plate (Corning no. 3598) and transfected by Polyethyleneimine Max (PEI Max) (Polysciences no. 24765-1). 1.5 μL PEI Max (1 mg/mL, pH=7.1) and 100 μl DMEM were mixed with plasmids to be slowly dropped into the cell medium after 30 mins of incubation. Medium was changed 12 hours post-transfection. The inductive small molecules, including Rapamycin (STEM CELL technologies no. 73362), dTAG-13 (TOCRIS no. 6605/5), dTAG^V-1 (TOCRIS no. 6744-5), dBRD9 (TOCRIS no. 6606/5), dTRIM24 (TOCRIS no. 6607/5), MZ1 (TOCRIS no. 6154/5), AT1 (TOCRIS no. 6356/5), TL13-12 (TOCRIS no. 6744/5), TL13-112 (TOCRIS no. 6745/5), dTAG-7 (TOCRIS no. 69125), ZXH3-26 (TOCRIS no. 6713/5) and ABA (GoldBio no. A-050-100), dissolved in Dimethyl sulfoxide (DMSO) (Sigma, no. D8418) were added. For the microscopy observation, the images were taken by Microscopy EVOS (Life Technologies) and processed by ImageJ (Schneider et al., 2012). If not otherwise noted, 60 ng of each plasmid were used for each sample.
(§4) Step-by-step fluorescence protein activation assay protocol. Reagents: • 1. PEI Max (Polysciences no. 24765-1) • 2. DMEM, high glucose, GlutaMAX™ Supplement, pyruvate (Thermo Fisher Scientific no. 10569044) • 3. Penicillin-Streptomycin (10,000 U/mL) (Thermo Fisher Scientific no. 15140122) • 4. Fetal Bovine Serum 500ML (FBS) (Thermo Fisher Scientific no. 10437028) • 5. TrypLE™ Express Enzyme (1×), phenol red (Thermo Fisher Scientific no. 12605068) • 6. PBS pH=7.4 (Thermo Fisher Scientific no. 10010023) • 7. Sony sorting chip […] for MA900 (SONY no. LE-C3210) • 8. Automatic Setup Beads kit (SONY no. LE-B3001) • 9. […]

[2] = as above; type: cell-based, human; conditions: Homo sapiens, HEK-293T, FIG. 13A
Description: as §1, §2, §3, §4

[3] = system: isABE system (FRB / FKBP3 fused split ABE8e), EYFP reporter in HEK293T cells; test: isABE split adenine base editor, EYFP stop-codon reporter dose response; type: cell-based; conditions: Homo sapiens, HEK-293T; different doses of Rapamycin, FIG. 5J
Text: For rapid exploration of inducible ABE variants, the inventors first sought to develop a rapid fluorescence-based reporter system to quantify the ABE efficiency as reported before. The inventors selected target region in eyfp gene with NGG PAM where a CAG codon within the editing window was mutated to TAG stop codon. ABEs convert A to G or T to C, thus allowing the conversion of stop codon to CAG following gRNA binding to untemplated strand. Additionally, there is no other bystander A in the editing window that would cause complex editing to affect the fluorescence expression. The inventors observed a high restoration of the EYFP fluorescence when transfecting HEK293T cells with plasmids encoding the ABE8e fused SpCas9 and guide RNA (FIGS. 5A and 5B). Next, the target range of base editors was restricted by the PAM where the prototypical SpCas9 recognizing target sites with NGG PAM (where N is A, C, G or T). A variant named SpG was identified with an expanded set of NGN PAM. […]
To develop a split adenosine base editor system, the inventors identified two potential split regions based on the crystal structure of ABE8e base editor in complex with guide RNA and target DNA. […] In addition, moderate levels of eYFP signal were detected in both sites. […]

[4] = system: EYFP and BFP expression in HEK293T cells; test: Dual PROTAC-based inducible gene cassettes (EYFP and BFP), microscopy; type: cell-based, human; conditions: GAL4-FKBP12^F36V + VHL-VPR driving EYFP; TetR-BRD9BD + CRBN-VPR driving BFP; 1 μM, FIG. 2B
Description: as §3
The inventors next tested the feasibility of dual PROTAC-based inducible gene cassettes (FIG. 15). In the first cassette, GAL4 was fused with FKBP12^F36V, and VHL was ligated with VPR to drive EYFP expression in response to dTAG^V-1. In the second cassette, TetR was fused with BRD9BD, and CRBN was connected with VPR to drive blue fluorescence protein (BFP) expression in the presence of dBRD9. […] As biological computation relies on the protein or DNA to execute Boolean logic gate operation in living organisms for cell discrimination and disease diagnosis (3, 11, 42), the inventors next explored the possibility of PROTAC-CID enabled logic gate biological computation. By placing EYFP under control of the TRE (Tetracycline response element) and pUAS-1 promoter, the inventors observed strong EYFP expression by using one or two PROTACs, achieving clear logic OR gate responses (FIGS. 2C and 16B). To develop a more sophisticated logic AND gate, the inventors took advantage of two orthogonal site-specific DNA recombinases (Cre and Dre) for biological computation (43). […] In this gene circuit, only in the presence of both dTAG-13 and dBRD9 inducers, Dre and Cre can be expressed to remove their respective “STOP” signals, resulting in the eventual GFP expression as a clear logic AND readout (FIGS. 2D and 16C).

[5] = system: Cre-mediated GFP expression in HEK293T cells; test: Inducible Cre site-specific DNA recombination, LoxP-STOP-LoxP-GFP reporter; type: cell-based, human; conditions: 100 nM dTAG-13 or 1 μM dBRD9, 2 days, FIGS. 3A and 17
Description: as §1
Transfection and microscopy. […]

wild-type FKBP12 = wild-type FKBP12 (Homo sapiens, UniProt P62942); conditions: refs (32, 36); cited from earlier work
GAL4-FKBP12 = GAL4-FKBP12 (UniProt P04386); test: cell-based or functional assay
PYL-VPR = PYL-VPR (UniProt Q8VZS8); test: cell-based or functional assay
TRIM24^BD-VPR (human) = test: cell-based or functional assay
BRD4^BD2-VPR (human) = test: cell-based or functional assay
[6] = Table 4 nonlinear regression, Prism 9 [Agonist] vs. response variable slope (four parameters), no unit in table (the source gives nM), read-out: EC50 (best-fit value)
[7] = dose-response, read-out: EC50 for gene activation

Chain of PYL-VPR (Q8VZS8 33-209): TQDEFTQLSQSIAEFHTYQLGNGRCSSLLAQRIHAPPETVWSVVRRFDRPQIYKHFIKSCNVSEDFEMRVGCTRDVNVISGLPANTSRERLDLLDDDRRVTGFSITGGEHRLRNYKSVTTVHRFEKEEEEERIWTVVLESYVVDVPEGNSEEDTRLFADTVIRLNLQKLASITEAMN
Chain of wild-type FKBP12 (P62942 whole entry, species assumed, the tested form may be a part): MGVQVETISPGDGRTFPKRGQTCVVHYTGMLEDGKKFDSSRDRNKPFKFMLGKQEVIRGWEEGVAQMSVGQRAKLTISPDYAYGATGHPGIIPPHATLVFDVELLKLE

Compound: CO[C@H]1C[C@@H]2CC[C@@H](C)[C@@](O)(O2)C(=O)C(=O)N2CCCC[C@H]2C(=O)O[C@H]([C@H](C)C[C@@H]2CC[C@@H](O)[C@H](OC)C2)CC(=O)[C@H](C)/C=C(\C)[C@@H](O)[C@@H](OC)C(=O)[C@H](C)C[C@H](C)/C=C/C=C/C=C/1C [Rapamycin]
- Bottom (best-fit value) [1]: 6.692
- Span (best-fit value) [1]: 483.9
- Top (best-fit value) [1]: 490.6
- Hillslope (best-fit value) ([1]; Table 4 nonlinear regression): 1.871
- logEC50 (best-fit value) ([1]; Table 4 nonlinear regression): 0.8008
- rapamycin-based gene activation (EYFP) ([1]; using FRB and FKBP12, FIG. 1B): 355 fold
- EC50 [2, 6]: 6.32 nM
- EC50 [2, 7]: 6 nM
- EC50 [3]: 1.8 nM

Compound: COc1cc(-c2cn(C)c(=O)c3cnccc23)cc(OC)c1CN(C)CC(=O)NCCOCCOCCNc1cccc2c1C(=O)N(C1CCC(=O)NC1=O)C2=O (stereo not shown) [dBRD9]
- EYFP / BFP expression from dual inducible cassettes [4]: expression only in the presence of its corresponding inducer
- GFP signal, two-layer genetic circuit driving Cre [5]: strong GFP signal

Compound: CC[C@H](C(=O)N1CCCC[C@H]1C(=O)O[C@H](CCc1ccc(OC)c(OC)c1)c1ccccc1OCC(=O)NCCCCCCC(=O)N[C@H](C(=O)N1C[C@H](O)C[C@H]1C(=O)N[C@@H](C)c1ccc(-c2scnc2C)cc1)C(C)(C)C)c1cc(OC)c(OC)c(OC)c1 [dTAG^V-1]
- Bottom (best-fit value) [1]: 0.9420
- Span (best-fit value) [1]: 55.73
- Top (best-fit value) [1]: 56.67
- Hillslope (best-fit value) ([1]; Table 4 nonlinear regression): 1.937
- logEC50 (best-fit value) ([1]; Table 4 nonlinear regression): 2.358
- EC50 [1, 6]: 228 nM
- EC50 [1, 7]: 228 nM
- degradation of wild-type FKBP12 (wild-type FKBP12): do not degrade wild-type FKBP12
- EYFP / BFP expression from dual inducible cassettes [4]: expression only in the presence of its corresponding inducer

Compound: FRB-VPR (from UniProt P42345 2021-2113)
- EC50 of the inducer Rapamycin for EYFP gene activation (dose-response, FIG. 13A) (GAL4-FKBP12): 6.32 nM
- fold EYFP gene activation with rapamycin (GAL4-FKBP12): 355 fold

Compound: GAL4-ABI (from UniProt P04386 1-147; P49597 126-423)
- EC50 of the inducer ABA for EYFP gene activation (dose-response, FIG. 13A) (PYL-VPR): 763 nM

Compound: GAL4-VHL fusion protein
- EC50 of the inducer dTRIM24 for EYFP gene activation (dose-response, FIG. 13A) (TRIM24^BD-VPR (human)): 6350 nM
- EC50 of the inducer MZ1 for EYFP gene activation (dose-response, FIG. 13A) (BRD4^BD2-VPR (human)): 32.4 nM
